Results as given in US20240216354A1, “IMMUNOMODULATORY IMIDE DRUGS AS ZETA-CHAIN-ASSOCIATED PROTEIN KINASE 70 (ZAP70) AGONISTS AND USES THEREOF” (Dana-Farber Cancer Institute, Inc., priority 2019, published 2024).

Biological target: T1, Zap-70 (Homo sapiens, UniProt P43403)
T1 sequence (P43403 1-619): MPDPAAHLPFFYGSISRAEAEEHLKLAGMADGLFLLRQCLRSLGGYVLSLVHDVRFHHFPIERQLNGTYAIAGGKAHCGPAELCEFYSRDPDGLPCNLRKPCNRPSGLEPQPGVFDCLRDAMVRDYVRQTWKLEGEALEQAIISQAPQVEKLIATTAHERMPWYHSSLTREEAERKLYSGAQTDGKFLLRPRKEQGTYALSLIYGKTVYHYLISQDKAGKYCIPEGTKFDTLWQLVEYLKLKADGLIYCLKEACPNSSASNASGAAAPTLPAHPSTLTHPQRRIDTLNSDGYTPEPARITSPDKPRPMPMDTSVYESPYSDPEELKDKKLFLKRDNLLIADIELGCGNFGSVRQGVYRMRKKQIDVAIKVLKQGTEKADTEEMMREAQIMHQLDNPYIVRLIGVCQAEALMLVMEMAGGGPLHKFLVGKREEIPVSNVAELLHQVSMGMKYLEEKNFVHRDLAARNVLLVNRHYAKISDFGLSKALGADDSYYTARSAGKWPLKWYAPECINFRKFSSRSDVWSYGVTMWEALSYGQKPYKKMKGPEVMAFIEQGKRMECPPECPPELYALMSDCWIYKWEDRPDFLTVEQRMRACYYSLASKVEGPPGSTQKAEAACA
Experiment: Immunoblotting of p-Zap-70 in Jurkat cells
Type: cell-based
Settings: 16 h
Protocol: (A) PBMCs were cultured with pomalidomide (“Pom”) (0.01-1 μM) for 16 h. […] (B) PBMCs were cultured with pomalidomide (0.1 and 1 μM) for the indicated time periods. (C) PBMCs were cultured with lenalidomide (“Len”) (1 μM) for 16 h. (D) Primary T-cells from healthy volunteer were cultured with pomalidomide (0.25-1 μM) for 16 h. (E) Jurkat cells were cultured with pomalidomide (0.5 and 1 μM) for 16 h. Whole cell lysates were subjected to immunoblotting (A-E) using indicated Abs. (F) Jurkat cells were cultured with pomalidomide (0.01-1 μM) or lenalidomide (0.01-1 μM) for 72 h. Cell growth was assessed by MTT assay.
(A) Jurkat cells were transfected with scrambled siRNA (Scsi) or CRBN siRNA (CRBNsi). Whole cell lysates were subjected to immunoblotting using indicated Abs. (B) Jurkat cells transfected with Scsi or CRBNsi were cultured with pomalidomide (1 μM) for 16 h. Whole cell lysates were subjected to immunoblotting using indicated Abs. (C) Jurkat cells were transfected with Scsi or Zap-70 siRNA (Zap-70si) (left panel). The transfectants were further cultured for 72 h, and cell growth was assessed by MTT assay (right panel).

p-Zap-70 induced by pomalidomide in CRBN-knockdown versus control Sc KD cells (CRBN siRNA, pomalidomide 1 μM): No significant change
Compound: Nc1cccc2c1C(=O)N(C1CCC(=O)NC1=O)C2=O (centres unmarked) [pomalidomide]
p-Zap-70 (immunoblotting) (pomalidomide 0.5 and 1 μM): similarly induced p-Zap-70 in Jurkat cells in a dose-dependent fashion
